Legend:
HiBit-BRM fusion protein = molecular target: T1, HiBit-BRM fusion protein (Homo sapiens, UniProt P51531); experiment: HiBiT-BRM cell-based degradation assay (Nano-Glo HiBiT Lytic Detection); settings: stable HeLa cell line expressing HiBiT-BRM, 24 h incubation; for BRM HiBit Degradation Maximum (%): top dose 30 μM; for DC50: read-out: BRM HiBit Degradation IC50
T1 construct: expressed in transfected cells
Protocol: (§1) Procedure: A stable HeLa cell line expressing HiBiT-BRM was generated. On day 0, 5000 cells were seeded in 40 μL of media into each well of 384-well cell culture plates. On day 1, cells were treated with 120 nL DMSO or 120 nL of 3-fold serially DMSO-diluted compounds (10 points in duplicate with 30 μM as final top dose). Subsequently plates were incubated for 24 h in a standard tissue culture incubator and equilibrated at room temperature for 15 minutes. Nano-Glo HiBiT Lytic Detection System (Promega N3050) reagent was freshly prepared and 20 ul was added to each well. Upon addition of this LgBit-containing reagent, the HiBiT and LgBiT proteins associate to form the luminescent NanoBiT luciferase. The plates were shaken for 10 minutes at room temperature and the bioluminescence read using an EnVision plate reader (PerkinElmer).
(§2) The degradation % was calculated using the following formula: % degradation=100%−100%×(LumSample−LumLC)/(LumHC−LumLC). DMSO treated cells are employed as High Control (HC) and 2 μM of a known BRM/BRG1 degrader standard treated cells are employed as Low Control (LC).

[1] = molecular target: T2, HiBit-BRG1 fusion protein (Homo sapiens, UniProt P51532); experiment: HiBiT-BRG1 cell-based degradation assay (Nano-Glo HiBiT Lytic Detection); settings: stable HeLa cell line expressing HiBit-BRG1 and LgBit, 24 h incubation; for Dmax: top dose 30 μM, read-out: BRG1 HiBit Degradation Maximum (%); for DC50: read-out: BRMG1 HiBit Degradation IC50
T2 construct: expressed in transfected cells
Protocol: as §1
For measurement of BRG1 degradation, a stable HeLa cell line expressing HiBit-BRG1 and LgBit was generated. The same protocol as above was then followed.
as §2

T1 sequence (P51531 whole entry, the tested form may be a part): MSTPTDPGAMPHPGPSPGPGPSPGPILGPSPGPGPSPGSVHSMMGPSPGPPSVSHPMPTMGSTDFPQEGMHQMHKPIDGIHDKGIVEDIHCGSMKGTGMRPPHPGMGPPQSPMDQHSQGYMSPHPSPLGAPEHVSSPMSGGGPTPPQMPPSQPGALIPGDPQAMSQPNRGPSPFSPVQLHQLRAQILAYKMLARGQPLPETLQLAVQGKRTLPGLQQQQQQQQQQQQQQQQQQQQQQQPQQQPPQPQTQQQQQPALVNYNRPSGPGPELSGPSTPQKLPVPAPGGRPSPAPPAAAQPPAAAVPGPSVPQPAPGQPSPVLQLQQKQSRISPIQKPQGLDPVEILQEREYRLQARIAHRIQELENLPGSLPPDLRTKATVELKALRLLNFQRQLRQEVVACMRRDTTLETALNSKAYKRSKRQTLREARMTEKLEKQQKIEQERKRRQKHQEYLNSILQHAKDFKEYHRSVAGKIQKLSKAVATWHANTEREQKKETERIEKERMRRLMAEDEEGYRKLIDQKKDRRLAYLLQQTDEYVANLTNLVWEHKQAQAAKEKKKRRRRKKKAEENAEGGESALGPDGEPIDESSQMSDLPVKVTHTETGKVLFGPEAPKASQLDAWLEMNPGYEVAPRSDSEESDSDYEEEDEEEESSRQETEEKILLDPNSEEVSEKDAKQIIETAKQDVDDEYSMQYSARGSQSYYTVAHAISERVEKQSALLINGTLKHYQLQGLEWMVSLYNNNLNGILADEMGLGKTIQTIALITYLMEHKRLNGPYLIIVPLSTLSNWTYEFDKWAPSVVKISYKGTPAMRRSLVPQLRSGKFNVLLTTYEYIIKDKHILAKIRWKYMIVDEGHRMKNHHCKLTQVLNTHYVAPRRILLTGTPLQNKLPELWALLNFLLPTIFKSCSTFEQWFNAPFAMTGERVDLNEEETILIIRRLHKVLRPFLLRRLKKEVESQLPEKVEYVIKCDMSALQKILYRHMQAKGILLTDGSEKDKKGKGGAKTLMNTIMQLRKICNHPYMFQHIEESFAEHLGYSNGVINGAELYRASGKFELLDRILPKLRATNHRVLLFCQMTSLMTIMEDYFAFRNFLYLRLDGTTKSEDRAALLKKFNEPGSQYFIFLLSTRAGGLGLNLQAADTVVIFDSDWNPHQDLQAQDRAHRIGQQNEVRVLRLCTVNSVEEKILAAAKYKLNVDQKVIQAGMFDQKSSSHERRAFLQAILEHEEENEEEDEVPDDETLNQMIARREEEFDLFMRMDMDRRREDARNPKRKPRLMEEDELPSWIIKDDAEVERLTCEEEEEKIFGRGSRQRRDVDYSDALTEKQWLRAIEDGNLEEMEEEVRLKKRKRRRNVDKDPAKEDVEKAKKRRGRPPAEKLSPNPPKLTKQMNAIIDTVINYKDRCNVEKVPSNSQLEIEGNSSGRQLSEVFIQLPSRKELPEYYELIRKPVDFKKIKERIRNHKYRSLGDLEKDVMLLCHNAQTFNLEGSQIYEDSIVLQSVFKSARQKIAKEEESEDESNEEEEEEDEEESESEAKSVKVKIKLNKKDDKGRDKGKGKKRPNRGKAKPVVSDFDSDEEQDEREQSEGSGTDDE
T2 sequence (P51532 whole entry, the tested form may be a part): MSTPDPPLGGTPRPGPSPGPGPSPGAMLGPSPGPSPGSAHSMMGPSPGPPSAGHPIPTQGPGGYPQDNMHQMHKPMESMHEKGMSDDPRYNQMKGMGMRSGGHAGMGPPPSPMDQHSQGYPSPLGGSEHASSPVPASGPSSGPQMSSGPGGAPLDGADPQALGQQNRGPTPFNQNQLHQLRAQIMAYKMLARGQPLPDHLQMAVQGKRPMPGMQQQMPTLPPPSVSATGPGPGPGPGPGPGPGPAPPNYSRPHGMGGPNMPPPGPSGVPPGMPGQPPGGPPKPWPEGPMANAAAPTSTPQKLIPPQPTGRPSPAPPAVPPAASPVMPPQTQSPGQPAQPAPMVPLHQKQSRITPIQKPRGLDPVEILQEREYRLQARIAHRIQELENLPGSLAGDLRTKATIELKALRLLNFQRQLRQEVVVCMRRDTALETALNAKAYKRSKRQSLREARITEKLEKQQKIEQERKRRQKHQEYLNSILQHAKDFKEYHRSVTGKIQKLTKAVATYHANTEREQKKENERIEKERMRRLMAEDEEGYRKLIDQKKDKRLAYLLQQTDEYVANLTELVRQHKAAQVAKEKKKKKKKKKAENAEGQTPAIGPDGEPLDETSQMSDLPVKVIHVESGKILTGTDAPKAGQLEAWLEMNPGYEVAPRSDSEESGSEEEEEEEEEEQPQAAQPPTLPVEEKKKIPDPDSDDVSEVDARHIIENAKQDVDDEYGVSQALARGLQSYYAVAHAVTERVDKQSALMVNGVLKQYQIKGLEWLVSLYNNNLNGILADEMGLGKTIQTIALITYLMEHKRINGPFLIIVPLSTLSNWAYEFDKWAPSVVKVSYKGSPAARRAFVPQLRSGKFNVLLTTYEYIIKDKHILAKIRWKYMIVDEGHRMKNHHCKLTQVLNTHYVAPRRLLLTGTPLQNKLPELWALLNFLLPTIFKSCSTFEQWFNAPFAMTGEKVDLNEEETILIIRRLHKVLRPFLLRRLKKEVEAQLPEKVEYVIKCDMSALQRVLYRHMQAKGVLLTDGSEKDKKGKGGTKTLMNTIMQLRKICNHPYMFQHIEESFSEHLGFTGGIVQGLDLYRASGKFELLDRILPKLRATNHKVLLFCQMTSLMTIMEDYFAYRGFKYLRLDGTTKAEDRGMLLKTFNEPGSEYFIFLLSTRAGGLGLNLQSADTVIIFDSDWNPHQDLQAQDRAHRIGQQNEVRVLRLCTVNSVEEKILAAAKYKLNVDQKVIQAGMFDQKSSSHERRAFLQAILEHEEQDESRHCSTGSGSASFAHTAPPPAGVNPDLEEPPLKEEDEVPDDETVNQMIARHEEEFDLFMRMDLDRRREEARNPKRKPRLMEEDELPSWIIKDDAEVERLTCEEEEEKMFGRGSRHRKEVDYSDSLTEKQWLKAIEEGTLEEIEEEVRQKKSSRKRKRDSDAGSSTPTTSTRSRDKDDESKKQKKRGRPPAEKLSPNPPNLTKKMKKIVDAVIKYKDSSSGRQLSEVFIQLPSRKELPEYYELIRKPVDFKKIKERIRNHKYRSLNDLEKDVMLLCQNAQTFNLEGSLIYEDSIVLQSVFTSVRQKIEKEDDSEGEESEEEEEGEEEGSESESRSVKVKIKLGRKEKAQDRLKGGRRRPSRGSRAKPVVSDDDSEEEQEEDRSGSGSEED

| DC50 (HiBit-BRM fusion protein) [nM] | Dmax [1] [%] | DC50 [1] [nM] | Structure (SMILES) | BRM HiBit Degradation Maximum (%) (HiBit-BRM fusion protein) |
| --- | --- | --- | --- | --- |
| ≥ 10 | < 50 | ≥ 1000 | Cc1ncsc1-c1ccc([C@H](C)NC(=O)[C@@H]2C[C@@H](O)CN2C(=O)C(c2cc(C3CC(N4CCC(c5sc6nnc(-c7ccccc7O)cc6c5C)CC4)C3)no2)C(C)C)cc1 (single isomer, unassigned) [Compound 34] | A (“A” indicates maximum degradation ≥ 75%) |
| ≥ 10 | < 50 | ≥ 1000 | Cc1ncsc1-c1ccc([C@H](C)NC(=O)[C@@H]2C[C@@H](O)CN2C(=O)[C@@H](c2cc(OCCN3CCC(c4cc5cc(-c6ccccc6O)nnc5s4)CC3)no2)C(C)C)cc1 [Compound 2, (2S,4R)-4-hydroxy-1-((R)-2-(3-(2-(4-(3-(2-hydroxyphenyl)thieno[2,3-c]pyridazin-6-yl)piperidin-1-yl)ethoxy)isoxazol-5-yl)-3-methylbutanoyl)-N—((S)-1-(4-(4-methylthiazol-5-yl)phenyl)ethyl)pyrrolidine-2-carboxamide] | A (“A” indicates maximum degradation ≥ 75%) |
| ≥ 100 | < 50 | ≥ 1000 | Cc1ncsc1-c1ccc([C@H](C)NC(=O)[C@@H]2C[C@@H](O)CN2C(=O)[C@@H](c2cc(N3CCN(C(=O)CN4CC(c5cc6cc(-c7ccccc7O)nnc6s5)C4)CC3)no2)C(C)C)cc1 [Compound 3, (2S,4R)-4-hydroxy-1-[(2R)-2-{3-[4-(2-{3-[3-(2-hydroxyphenyl)thieno[2,3-c]pyridazin-6-yl]azetidin-1-yl}acetyl)piperazin-1-yl]-1,2-oxazol-5-yl}-3-methylbutanoyl]-N-[(1S)-1-[4-(4-methyl-1,3-thiazol-5-yl)phenyl]ethyl]pyrrolidine-2-carboxamide] | A (“A” indicates maximum degradation ≥ 75%) |
| ≥ 1000 | < 50 | ≥ 1000 | Cc1ncsc1-c1ccc([C@H](C)NC(=O)[C@@H]2C[C@@H](O)CN2C(=O)[C@H](c2cc(N3CCC(C(=O)N4CC(c5cc6cc(-c7ccccc7O)nnc6s5)C4)CC3)no2)C(C)C)cc1 [Compound 4, (2S,4R)-4-hydroxy-1-((S)-2-(3-(4-(3-(3-(2-hydroxyphenyl)thieno[2,3-c]pyridazin-6-yl)azetidine-1-carbonyl)piperidin-1-yl)isoxazol-5-yl)-3-methylbutanoyl)-N—((S)-1-(4-(4-methylthiazol-5-yl)phenyl)ethyl)pyrrolidine-2-carboxamide] | C (“C” indicates maximum degradation < 50%) |
| ≥ 10 | < 50 | ≥ 1000 | Cc1ncsc1-c1ccc([C@H](C)NC(=O)[C@@H]2C[C@@H](O)CN2C(=O)[C@@H](c2cc(OCCN3CC(c4cc5nnc(-c6ccccc6O)cc5s4)C3)no2)C(C)C)cc1 [Compound 9, (2S,4R)-4-hydroxy-1-((R)-2-(3-(2-(3-(3-(2-hydroxyphenyl)thieno[3,2-c]pyridazin-6-yl)azetidin-1-yl)ethoxy)isoxazol-5-yl)-3-methylbutanoyl)-N—((S)-1-(4-(4-methylthiazol-5-yl)phenyl)ethyl)pyrrolidine-2-carboxamide] | A (“A” indicates maximum degradation ≥ 75%) |
| ≥ 10 | < 50 | ≥ 1000 | Cc1ncsc1-c1ccc([C@H](C)NC(=O)[C@@H]2C[C@@H](O)CN2C(=O)[C@@H](c2cc(N3CCC(C(=O)N4CC(c5sc6nnc(-c7ccccc7O)cc6c5C)C4)CC3)no2)C(C)C)cc1 [Compound 10] | A (“A” indicates maximum degradation ≥ 75%) |
| ≥ 1000 | < 50 | ≥ 1000 | Cc1ncsc1-c1ccc([C@H](C)NC(=O)[C@@H]2C[C@@H](O)CN2C(=O)[C@H](c2cc(C3CCN(C(=O)CN4CC(c5cc6cc(-c7ccccc7O)nnc6s5)C4)CC3)no2)C(C)C)cc1 [Compound 12] | C (“C” indicates maximum degradation < 50%) |

Second part, the compound before the results:

| Structure (SMILES) | DC50 (HiBit-BRM fusion protein) [nM] | Dmax [1] [%] | DC50 [1] [nM] | BRM HiBit Degradation Maximum (%) (HiBit-BRM fusion protein) |
| --- | --- | --- | --- | --- |
| Cc1ncsc1-c1ccc([C@H](C)NC(=O)[C@@H]2C[C@@H](O)CN2C(=O)[C@@H](c2cc(N3CCN(C(=O)[C@@H]4CCc5sc6nnc(-c7ccccc7O)cc6c5C4)CC3)no2)C(C)C)cc1 (single isomer, unassigned) [Compound 53] | ≥ 1000 | < 50 | ≥ 1000 | C (“C” indicates maximum degradation < 50%) |
| Cc1ncsc1-c1ccc(CNC(=O)[C@@H]2C[C@@H](O)CN2C(=O)[C@H](c2cc(N3CCOCC3)no2)C(C)C)c(OCCCN2CCC(c3sc4nnc(-c5ccccc5O)cc4c3C)CC2)c1 (single isomer, unassigned) [Compound 55] | ≥ 1000 | < 50 | ≥ 1000 | A (“A” indicates maximum degradation ≥ 75%) |
| Cc1ncsc1-c1ccc(CNC(=O)[C@@H]2C[C@@H](O)CN2C(=O)[C@@H](c2cc(N3CCOCC3)no2)C(C)C)c(OCCCN2CCC(c3sc4nnc(-c5ccccc5O)cc4c3C)CC2)c1 (single isomer, unassigned) [Compound 56] | ≥ 10 | < 50 | ≥ 1000 | B (“B” indicates maximum degradation ≥ 50%) |
| Cc1ncsc1-c1ccc([C@H](C)NC(=O)[C@@H]2C[C@@H](O)CN2C(=O)[C@@H](c2cc(OCCN3CC(c4cc5cc(-c6ccccc6O)nnc5s4)C3)no2)C(C)C)cc1 [Compound 1, (2S,4R)-4-hydroxy-1-((R)-2-(3-(2-(3-(3-(2-hydroxyphenyl)thieno[2,3-c]pyridazin-6-yl)azetidin-1-yl)ethoxy)isoxazol-5-yl)-3-methylbutanoyl)-N—((S)-1-(4-(4-methylthiazol-5-yl)phenyl)ethyl)pyrrolidine-2-carboxamide] | ≥ 10 | < 50 | ≥ 1000 | B (“B” indicates maximum degradation ≥ 50%) |
| Cc1ncsc1-c1ccc([C@H](C)NC(=O)[C@@H]2C[C@@H](O)CN2C(=O)[C@@H](c2cc(N3CCC(C(=O)N4CC(c5cc6cc(-c7ccccc7O)nnc6s5)C4)CC3)no2)C(C)C)cc1 [Compound 5, (2S,4R)-4-hydroxy-1-((R)-2-(3-(4-(3-(3-(2-hydroxyphenyl)thieno[2,3-c]pyridazin-6-yl)azetidine-1-carbonyl)piperidin-1-yl)isoxazol-5-yl)-3-methylbutanoyl)-N—((S)-1-(4-(4-methylthiazol-5-yl)phenyl)ethyl)pyrrolidine-2-carboxamide] | ≥ 10 | < 50 | ≥ 1000 | A (“A” indicates maximum degradation ≥ 75%) |
| Cc1ncsc1-c1ccc([C@H](C)NC(=O)[C@@H]2C[C@@H](O)CN2C(=O)[C@@H](c2cc(N3CCN(CC(=O)N4CC(c5cc6cc(-c7ccccc7O)nnc6s5)C4)CC3)no2)C(C)C)cc1 [Compound 6, (2S,4R)-4-hydroxy-1-[(2R)-2-{3-[4-(2-{3-[3-(2-hydroxyphenyl)thieno[2,3-c]pyridazin-6-yl]azetidin-1-yl}-2-oxoethyl)piperazin-1-yl]-1,2-oxazol-5-yl}-3-methylbutanoyl]-N-[(1S)-1-[4-(4-methyl-1,3-thiazol-5-yl)phenyl]ethyl]pyrrolidine-2-carboxamide] | ≥ 100 | < 50 | ≥ 1000 | B (“B” indicates maximum degradation ≥ 50%) |
| Cc1ncsc1-c1ccc([C@H](C)NC(=O)[C@@H]2C[C@@H](O)CN2C(=O)[C@@H](c2cc(N3CCC(CN4CC(c5cc6cc(-c7ccccc7O)nnc6s5)C4)CC3)no2)C(C)C)cc1 [Compound 7] | ≥ 10 | < 50 | ≥ 1000 | A (“A” indicates maximum degradation ≥ 75%) |
| Cc1ncsc1-c1ccc([C@H](C)NC(=O)[C@@H]2C[C@@H](O)CN2C(=O)[C@@H](c2cc(OCCN3CCC(c4sc5nnc(-c6ccccc6O)cc5c4C)CC3)no2)C(C)C)cc1 [Compound 8, (2S,4R)-4-hydroxy-1-[(2R)-2-[3-(2-{4-[3-(2-hydroxyphenyl)-5-methylthieno[2,3-c]pyridazin-6-yl]piperidin-1-yl}ethoxy)-1,2-oxazol-5-yl]-3-methylbutanoyl]-N-[(1S)-1-[4-(4-methyl-1,3-thiazol-5-yl)phenyl]ethyl]pyrrolidine-2-carboxamide] | < 10 | < 50 | ≥ 1000 | A (“A” indicates maximum degradation ≥ 75%) |
| Cc1ncsc1-c1ccc([C@H](C)NC(=O)[C@@H]2C[C@@H](O)CN2C(=O)[C@@H](c2cc(N3CCC(C(=O)N4CCc5sc6nnc(-c7ccccc7O)cc6c5C4)CC3)no2)C(C)C)cc1 [Compound 11, (2S,4R)-4-hydroxy-1-((R)-2-(3-(4-(3-(2-hydroxyphenyl)-5,6,7,8-tetrahydropyrido[3′,4′:4,5]thieno[2,3-c]pyridazine-6-carbonyl)piperidin-1-yl)isoxazol-5-yl)-3-methylbutanoyl)-N—((S)-1-(4-(4-methylthiazol-5-yl)phenyl)ethyl)pyrrolidine-2-carboxamide] | ≥ 100 | < 50 | ≥ 1000 | A (“A” indicates maximum degradation ≥ 75%) |

Source: US20240376121A1, “COMPOUNDS AND USES THEREOF” (Foghorn Therapeutics Inc., priority 2021, published 2024)
